These compounds were tested against human TRPV3 receptors (Homo sapiens (Human), UniProt Q8NET8) (assay: Calcium flux assay (FLIPR TETRA), inhibition of the 2-APB response). Settings: recombinant HEK293 cells stably expressing TRPV3, Calcium-4 dye, 2-APB at its EC80.
Assay type: cell-based
Procedure, shortened: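 HEK293 cells stably expressing human and mouse TRPV3, plated the day before and dye-loaded 90-120 min in the dark, read on FLIPR Tetra. Peak fluorescence increase over baseline was expressed as percent of the maximal 2-APB response without compound.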

human TRPV3 receptors, sequence (Q8NET8 whole entry): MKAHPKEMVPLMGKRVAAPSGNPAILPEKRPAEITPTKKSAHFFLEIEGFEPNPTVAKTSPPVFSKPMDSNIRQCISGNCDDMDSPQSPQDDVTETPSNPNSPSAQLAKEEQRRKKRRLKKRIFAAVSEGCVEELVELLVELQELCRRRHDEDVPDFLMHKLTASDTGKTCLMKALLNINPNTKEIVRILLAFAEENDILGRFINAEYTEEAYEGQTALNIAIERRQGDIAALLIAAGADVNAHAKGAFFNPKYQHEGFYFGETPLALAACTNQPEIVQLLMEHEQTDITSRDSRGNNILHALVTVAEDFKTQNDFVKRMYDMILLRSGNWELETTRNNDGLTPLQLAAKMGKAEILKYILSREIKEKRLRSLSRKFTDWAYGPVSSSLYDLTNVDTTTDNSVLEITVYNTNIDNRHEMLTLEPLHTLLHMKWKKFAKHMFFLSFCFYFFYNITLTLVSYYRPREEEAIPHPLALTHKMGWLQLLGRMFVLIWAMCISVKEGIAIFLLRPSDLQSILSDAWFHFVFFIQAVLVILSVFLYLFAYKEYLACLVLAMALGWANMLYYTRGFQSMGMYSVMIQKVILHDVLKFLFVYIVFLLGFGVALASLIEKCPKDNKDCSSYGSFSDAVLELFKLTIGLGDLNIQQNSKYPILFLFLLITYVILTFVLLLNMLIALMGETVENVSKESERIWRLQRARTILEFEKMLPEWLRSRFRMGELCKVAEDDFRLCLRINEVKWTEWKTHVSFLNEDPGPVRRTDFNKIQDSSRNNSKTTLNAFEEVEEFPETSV

SMILES	IC50
CC(C)[C@H](CO)NCc1nc(C2=CCC(C(F)(F)F)CC2)ccc1F (stereo partly drawn) [Example 223, (2R)-2-[({3-fluoro-6-[4-(trifluoromethyl)cyclohex-1-en-1-yl]pyridin-2-yl}methyl)amino]-3-methylbutan-1-ol]	80 nM
OC[C@@H](Cc1ccccc1)NCc1ccnc(-c2ccc(C(F)(F)F)cc2)n1 [Example 140, (2R)-3-phenyl-2-[({2-[4-(trifluoromethyl)phenyl]pyrimidin-4-yl}methyl)amino]propan-1-ol]	> 20000 nM
OCC[C@@H](NCc1ccnc(-c2ccc(C(F)(F)F)cc2)n1)c1ccccc1 [Example 162, (3R)-3-phenyl-3-[({2-[4-(trifluoromethyl)phenyl]pyrimidin-4-yl}methyl)amino]propan-1-ol]	> 20000 nM
OC1(CNCc2ccnc(-c3ccc(C(F)(F)F)cc3)n2)CCCCC1 [Example 178, 1-{[({2-[4-(trifluoromethyl)phenyl]pyrimidin-4-yl}methyl)amino]methyl}cyclohexanol]	> 20000 nM
CC(C)[C@H](CO)NCc1nc(C2CCC(C(F)(F)F)CC2)ccc1F (stereo partly drawn) [Example 216, (2R)-2-[({3-fluoro-6-[4-(trifluoromethyl)cyclohexyl]pyridin-2-yl}methyl)amino]-3-methylbutan-1-ol]	310 nM
CC(C)[C@H](CO)NCc1ccc(F)c(-c2ccc(C(F)(F)F)nc2)n1 [Example 109, (2R)-2-({[3-fluoro-6′-(trifluoromethyl)-2,3′-bipyridin-6-yl]methyl}amino)-3-methylbutan-1-ol]	3590 nM
CC(C)[C@H](CO)NCc1nc([C@H]2CC[C@@H](C(F)(F)F)CC2)ccc1F [Example 257, (2R)-2-[({3-fluoro-6-[cis-4-(trifluoromethyl)cyclohexyl]pyridin-2-yl}methyl)amino]-3-methylbutan-1-ol]	340 nM
OC(CCNCc1ccnc(-c2ccc(C(F)(F)F)cc2)n1)c1ccccc1 (stereo not shown) [Example 164, 1-phenyl-3-[({2-[4-(trifluoromethyl)phenyl]pyrimidin-4-yl}methyl)amino]propan-1-ol]	> 20000 nM
COCC(CO)NCc1ccnc(-c2ccc(S(=O)(=O)C(F)(F)F)cc2)n1 (stereo not shown) [Example 210, 3-methoxy-2-{[(2-{4-[(trifluoromethyl)sulfonyl]phenyl}pyrimidin-4-yl)methyl]amino}propan-1-ol]	18500 nM
CC(C)[C@H](CO)NCc1ccnc(-c2ccc(C(F)(F)F)nc2)n1 [Example 184, (2R)-3-methyl-2-[({2-[6-(trifluoromethyl)pyridin-3-yl]pyrimidin-4-yl}methyl)amino]butan-1-ol]	2940 nM
OC[C@@H]1CCCC[C@@H]1NCc1ccnc(-c2ccc(C(F)(F)F)cc2)n1 [Example 168, {(1R,2S)-2-[({2-[4-(trifluoromethyl)phenyl]pyrimidin-4-yl}methyl)amino]cyclohexyl}methanol]	> 20000 nM
CC(C)[C@H](CO)NCc1nc(-c2cccc(C(=O)N(C)Cc3ccccc3)c2)ccc1F [Example 58, N-benzyl-3-[5-fluoro-6-({[(2R)-1-hydroxy-3-methylbutan-2-yl]amino}methyl)pyridin-2-yl]-N-methylbenzamide]	1490 nM
CCC[C@H](CO)NCc1nc(-c2ccc(C(F)(F)F)cc2)ccc1F [Example 83, (2R)-2-[({3-fluoro-6-[4-(trifluoromethyl)phenyl]pyridin-2-yl}methyl)amino]pentan-1-ol]	460 nM
CC(C)(C)[C@H](CO)NCc1nc(-c2ccc(C(F)(F)F)cc2)ccc1F [Example 85, (2R)-2-((3-fluoro-6-(4-(trifluoromethyl)phenyl)pyridin-2-yl)methylamino)-3,3-dimethylbutan-1-ol]	520 nM
CC(C)[C@H](CO)NCc1cccc(OCc2ccccc2)n1 [Example 12, (2R)-2-({[6-(benzyloxy)pyridin-2-yl]methyl}amino)-3-methylbutan-1-ol]	910 nM
O[C@@H]1CCC[C@@H]1NCc1ccnc(-c2ccc(C(F)(F)F)cc2)n1 [Example 173, (1R,2S)-2-[({2-[4-(trifluoromethyl)phenyl]pyrimidin-4-yl}methyl)amino]cyclopentanol]	> 20000 nM
O[C@@H]1CCCC[C@@H]1NCc1nc(-c2ccc(C(F)(F)F)nc2)ccc1F [Example 123, (1R,2S)-2-({[5-fluoro-6′-(trifluoromethyl)-2,3′-bipyridin-6-yl]methyl}amino)cyclohexanol]	8550 nM

Continued, values first:

IC50	SMILES
630 nM	Cc1ccc(S(=O)(=O)C(F)(F)F)cc1-c1ccc(F)c(CN[C@@H](CO)C(C)C)n1 [Example 59, (2R)-2-{[(3-fluoro-6-{2-methyl-5-[(trifluoromethyl)sulfonyl]phenyl}pyridin-2-yl)methyl]amino}-3-methylbutan-1-ol]
650 nM	CC(C)Oc1ccc(-c2ccc(F)c(CN[C@@H](CO)C(C)C)n2)cc1F [Example 25, (2R)-2-[({3-fluoro-6-[3-fluoro-4-(propan-2-yloxy)phenyl]pyridin-2-yl}methyl)amino]-3-methylbutan-1-ol]
370 nM	CC(C)[C@H](CO)NCc1nc(C#Cc2ccc(F)c(F)c2)ccc1F [Example 239, (2R)-2-[({6-[(3,4-difluorophenyl)ethynyl]-3-fluoropyridin-2-yl}methyl)amino]-3-methylbutan-1-ol]
1190 nM	CC(=O)c1cccc(-c2ccc(F)c(CN[C@@H](CO)C(C)C)n2)c1F [Example 37, 1-{2-fluoro-3-[5-fluoro-6-({[(2R)-1-hydroxy-3-methylbutan-2-yl]amino}methyl)pyridin-2-yl]phenyl}ethanone]
1860 nM	CC(C)[C@H](CO)NCc1nc(C#Cc2ccc(C(C)(C)C)cc2)ccc1F [Example 241, (2R)-2-[({6-[(4-tert-butylphenyl)ethynyl]-3-fluoropyridin-2-yl}methyl)amino]-3-methylbutan-1-ol]
520 nM	CC(C)[C@H](CO)NCc1cccc(C#Cc2ccc(F)cc2F)n1 [Example 284, (2R)-2-[({6-[(2,4-difluorophenyl)ethynyl]pyridin-2-yl}methyl)amino]-3-methylbutan-1-ol]
390 nM	CC(C)[C@H](CO)NCc1nc(-c2ccc(Cl)cc2)ccc1F [Example 42, (2R)-2-({[6-(4-chlorophenyl)-3-fluoropyridin-2-yl]methyl}amino)-3-methylbutan-1-ol]
80 nM	CC(C)[C@H](CO)NCc1nc(-c2cc(F)cc(F)c2)ccc1F [Example 247, (2R)-2-({[6-(3,5-difluorophenyl)-3-fluoropyridin-2-yl]methyl}amino)-3-methylbutan-1-ol]
500 nM	CCN(CC)S(=O)(=O)c1cccc(-c2ccc(F)c(CN[C@@H](CO)C(C)C)n2)c1 [Example 51, N,N-diethyl-3-[5-fluoro-6-({[(2R)-1-hydroxy-3-methylbutan-2-yl]amino}methyl)pyridin-2-yl]benzenesulfonamide]
1780 nM	CC(C)[C@H](CO)NCc1nc(-c2cccc(C(=O)N(C(C)C)C(C)C)c2)ccc1F [Example 56, 3-[5-fluoro-6-({[(2R)-1-hydroxy-3-methylbutan-2-yl]amino}methyl)pyridin-2-yl]-N,N-diisopropylbenzamide]
290 nM	CC(C)[C@H](CO)NCc1nc(C#Cc2ccc(F)cc2)ccc1F [Example 238, (2R)-2-[({3-fluoro-6-[(4-fluorophenyl)ethynyl]pyridin-2-yl}methyl)amino]-3-methylbutan-1-ol]

— patent publication US9012651B2, “TRPV3 modulators” (AbbVie Inc., priority 2011, dated 2015)
